Data on one compound can be found in patent US7071179B2, “Method of locking 1α-OH of vitamin D compounds in axial orientation” (Wisconsin Alumni Research Foundation, priority 1998, dated 2006).

Assay [1] can be described thus: biological testing of 10,19-dihydrovitamin D3 compounds, in vivo biological response. The note with it: compared among the 1α,25-dihydroxy-10,19-dihydrovitamin D3 compounds tested.
Assay [2] relates to intestinal calcium transport. Kind of assay: intestinal calcium transport activity. Conditions: in vivo.

In the case of `CC(CCCC(C)(C)O)C1CCC2C(=CC=C3CC(O)CC(O)C3C)CCCC21C` [1α,25-dihydroxy-10(S), 19-dihydrovitamin D3], in assay [1], the “in vivo biological response” value was “greatest in vivo biological response”. Besides, the “activity on intestinal calcium transport” value in assay [2] was “very significant activity”.
